According to patent US10632171B2, “Melanocortin receptor-specific peptides” (Palatin Technologies, Inc., priority 2009, dated 2020):
Read-outs that look alike come from different tables or passages of the source. Peptide text beside a SMILES is read from it.

Assays:
hMC4-R = hMC4-R (Homo sapiens (Human), UniProt P32245); assay: Assay for agonist activity (cAMP accumulation in HEK-293 cells); format: cell-based; details: for Emax: HEK293; for functional classification at MC4-R: agonist = intrinsic activity 70% or higher, partial agonist 10-70%
hMC4-R, sequence (P32245 whole entry): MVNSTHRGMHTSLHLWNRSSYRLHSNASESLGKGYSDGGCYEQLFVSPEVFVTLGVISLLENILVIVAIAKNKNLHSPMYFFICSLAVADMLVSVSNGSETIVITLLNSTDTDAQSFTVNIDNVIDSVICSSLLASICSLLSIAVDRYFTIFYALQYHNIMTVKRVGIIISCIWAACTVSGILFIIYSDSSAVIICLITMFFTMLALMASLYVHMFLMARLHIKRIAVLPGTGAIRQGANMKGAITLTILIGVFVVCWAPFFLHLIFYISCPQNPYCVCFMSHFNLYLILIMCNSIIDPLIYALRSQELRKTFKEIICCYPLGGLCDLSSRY
Method: Accumulation of intracellular cAMP was examined as a measure of the ability of the peptides of the present invention to elicit a functional response in HEK-293 cells that express MC4-R. Confluent HEK-293 cells that express recombinant hMC4-R were detached from culture plates by incubation in enzyme-free cell dissociation buffer. Dispersed cells were suspended in Earle's Balanced Salt Solution containing 10 mM HEPES (pH 7.5), 1 mM MgCl2, 1 mM glutamine, 0.5% albumin and 0.3 mM 3-isobutyl-1-methyl-xanthine (IBMX), a phosphodiesterase inhibitor. […] Cells were exposed for 15 minutes at 37° C. to peptides of the present invention dissolved in DMSO (final DMSO concentration of 1%) at a concentration range of 0.05-5000 nM in a total assay volume of 200 μL. […] Data analysis was performed by nonlinear regression analysis with Graph-Pad Prism® software. The maximum efficacies of the test peptides of the present invention were compared to that achieved by the reference melanocortin agonist NDP-αMSH.

hMC1-R = hMC1-R (Homo sapiens (Human), UniProt Q01726); assay: Functional assay for agonist activity at hMC1-R; format: cell-based; details: intrinsic activity
hMC1-R, sequence (Q01726 whole entry): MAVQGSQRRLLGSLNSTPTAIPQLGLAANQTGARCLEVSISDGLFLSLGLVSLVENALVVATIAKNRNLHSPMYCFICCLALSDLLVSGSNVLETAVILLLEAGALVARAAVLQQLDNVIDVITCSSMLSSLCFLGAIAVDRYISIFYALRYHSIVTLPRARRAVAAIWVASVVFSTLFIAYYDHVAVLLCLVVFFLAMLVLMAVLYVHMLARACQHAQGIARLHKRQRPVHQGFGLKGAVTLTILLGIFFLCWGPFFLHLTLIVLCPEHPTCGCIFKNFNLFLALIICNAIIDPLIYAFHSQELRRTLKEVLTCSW

[1] = Food intake and body weight change in rats; format: in vivo, rat; details: for food intake / rate of change in body weight: rat feeding study, 0.3 and 1 mg/kg; for decrease in food consumption compared to control: rats
Method: Change in food intake and body weight was evaluated for selected peptides administered by intravenous (IV) or subcutaneous injection routes. Male Sprague-Dawley rats were obtained from Hilltop Lab Animals, Inc. (Scottsdale, Pa.) or other vendors. Animals were individually housed in conventional polystyrene hanging cages and maintained on a controlled 12 hour on/off light cycle. Water and pelleted food was provided ad libitum. The rats were dosed IV with vehicle or selected peptides (0.3 to 1.0 mg/kg), or dosed subcutaneously with vehicle or selected peptides (doses up to 30 mg/kg). […] The changes in body weight and food intake for the 48 hour and 72 hour periods after dosing can also be measured to determine reversal of changes in body weight and food intake effects back to baseline levels.

[2] = Induction of penile erection in male rats; format: in vivo, rat
Method: The ability of peptides of the present invention to induce penile erection (PE) in male rats were evaluated with selected peptides. Male Sprague-Dawley rats weighing 250-300 g were kept on a 12 hour on/off light cycle with food and water ad libitum. All behavioral studies were performed between 9 a.m. and 4 p.m. […] Rats are observed for one hour, and the number of yawns, grooming bouts and PEs are recorded in 10-minute bins.

[3] = intrinsic activity, read-out: hMC4-R Emax (%)
[4] = NDP-α-MSH is 100%, read-out: intrinsic activity at MC4-R
[5] = 1 mg/kg, 0-2, 0-4 and 0-20 hour periods

| SMILES | Emax (hMC4-R; [3]) [%] | Emax (hMC1-R) [%] | Emax (hMC4-R; [4]) [%] | functional classification at MC4-R (hMC4-R) | also measured |
| --- | --- | --- | --- | --- | --- |
| CC(=O)N[C@H](CCCNC(=N)N)C(=O)N[C@H]1CCCNC(=O)CC[C@@H](C(N)=O)NC(=O)[C@H](Cc2c[nH]c3ccccc23)NC(=O)[C@H](CCCNC(=N)N)NC(=O)[C@@H](Cc2ccccc2)NC(=O)[C@H](CCC(N)=O)NC1=O [compound 152, Ac-D-Arg-cyclo(Orn- Gln-D-Phe-Arg-Trp- Glu)-NH2] | 89 | 85 |  |  |  |
| CC(=O)N[C@@H](CCCNC(=N)N)C(=O)N[C@H]1CCCC(=O)NCC[C@@H](C(N)=O)NC(=O)[C@H](Cc2c[nH]c3ccccc23)NC(=O)[C@H](CCCNC(=N)N)NC(=O)[C@@H](Cc2ccccc2)NC(=O)[C@H](CC(N)=O)NC1=O [compound 160, Ac-Arg-cyclo(hGlu-Asn- D-Phe-Arg-Trp-Dab)- NH2] (HELM PEPTIDE1{[ac].R.[O=C([C@H](CCCC(=O)[*:3])N[*:1])[*:2]].N.[dF].R.W.[Dab].[am]}$PEPTIDE1,PEPTIDE1,3:R3-8:R3$$$V2.0) | 98 | 95 |  |  |  |
| CC(=O)N[C@@H](CCCNC(=N)N)C(=O)N[C@H]1CCCNC(=O)CC[C@@H](C(N)=O)NC(=O)[C@H](Cc2c[nH]c3ccccc23)NC(=O)[C@H](CCCNC(=N)N)NC(=O)[C@@H](Cc2ccccc2)NC(=O)[C@H](CCC(N)=O)NC1=O [compound 150, Ac-Arg-cyclo(Orn-Gln- D-Phe-Arg-Trp-Glu)- NH2] |  | 89 |  |  |  |
| CC(=O)N[C@H](CCCNC(=N)N)C(=O)N[C@H]1CCCNC(=O)CC[C@@H](C(N)=O)NC(=O)[C@H](Cc2c[nH]c3ccccc23)NC(=O)[C@H](CCCNC(=N)N)NC(=O)[C@@H](Cc2ccccc2)NC(=O)[C@H](CC(N)=O)NC1=O [compound 156, Ac-D-Arg-cyclo(Orn- Asn-D-Phe-Arg-Trp- Glu)-NH2] |  | 81 |  |  |  |
| CC(=O)N[C@@H](CCCNC(=N)N)C(=O)N[C@H]1CCCC(=O)NCC[C@@H](C(N)=O)NC(=O)[C@H](Cc2c[nH]c3ccccc23)NC(=O)[C@H](CCCNC(=N)N)NC(=O)[C@@H](Cc2ccccc2)NC(=O)[C@H](Cc2c[nH]cn2)NC1=O [compound 126, Ac-Arg-cyclo(hGlu-His- D-Phe-Arg-Trp-Dab)- NH2] |  |  | 101 | agonist |  |
| CC(=O)N[C@@H](CCCNC(=N)N)C(=O)N[C@H]1CCNC(=O)CCC[C@@H](C(N)=O)NC(=O)[C@H](Cc2c[nH]c3ccccc23)NC(=O)[C@H](CCCNC(=N)N)NC(=O)[C@@H](Cc2ccccc2)NC(=O)[C@H](CCC(N)=O)NC1=O [compound 159, Ac-Arg-cyclo(Dab-Gln- D-Phe-Arg-Trp-hGlu)- NH2] | 99 | 98 |  |  |  |
| CC(=O)N[C@H](CCCNC(=N)N)C(=O)N[C@H]1CC(=O)NCCCC[C@@H](C(N)=O)NC(=O)[C@H](Cc2c[nH]c3ccccc23)NC(=O)[C@H](CCCNC(=N)N)NC(=O)[C@@H](Cc2ccccc2)NC(=O)[C@H](CCC(N)=O)NC1=O [compound 71, Ac-D-Arg-cyclo(Asp- Gln-D-Phe-Arg-Trp- Lys)-NH2] | 89 | 88 |  |  |  |
| CC(=O)N[C@@H](CCCNC(=N)N)C(=O)N[C@H]1CCC(=O)NCCC[C@@H](C(N)=O)NC(=O)[C@H](Cc2c[nH]c3ccccc23)NC(=O)[C@H](CCCNC(=N)N)NC(=O)[C@@H](Cc2ccccc2)NC(=O)[C@H](CC(N)=O)NC1=O [compound 161, Ac-Arg-cyclo/(Glu-Asn- D-Phe-Arg-Trp-Orn)- NH2] | 91 | 85 |  |  |  |
| CC(=O)N[C@@H](CCCNC(=N)N)C(=O)N[C@H]1CC(=O)NCCCC[C@@H](C(N)=O)NC(=O)[C@H](Cc2c[nH]c3ccccc23)NC(=O)[C@H](CCCNC(=N)N)NC(=O)[C@@H](Cc2ccccc2)NC(=O)[C@H](Cc2c[nH]cn2)NC1=O [Peptide No. 1, Ac-Arg-cyclo(Asp-His- D-Phe-Arg-Trp-Lys)- NH2] |  |  | 91 | agonist | food intake [1]: reduce food intake; rate of change in body weight [1]: decrease the rate of change in body weight; decrease in food consumption compared to control ([1]; 0.3 mg/kg, 0-2, 0-4 and 0-20 hour periods): statistically significant; decrease in food consumption compared to control [1, 5]: statistically significant; observed spontaneous erections compared to vehicle ([2]; IV, 0.3 or 1 mg/kg): statistically significant increase |
| CC(=O)N[C@@H](CCCNC(=N)N)C(=O)N[C@H]1CC(=O)NCCCC[C@@H](C(N)=O)NC(=O)[C@H](Cc2c[nH]c3ccccc23)NC(=O)[C@H](CCCNC(=N)N)NC(=O)[C@@H](Cc2ccccc2)NC(=O)[C@H](CCC(N)=O)NC1=O [Peptide No. 32, Ac-Arg-cyclo(Asp-Gln- D-Phe-Arg-Trp-Lys)- NH2] |  |  | 98 | agonist | observed spontaneous erections ([2]; subcutaneous, 1, 3 or 10 mg/kg): increase in observed spontaneous erections |

More lines, main results first:

| Emax (hMC4-R; [3]) [%] | Emax (hMC1-R) [%] | Emax (hMC4-R; [4]) [%] | functional classification at MC4-R (hMC4-R) | SMILES | also measured |
| --- | --- | --- | --- | --- | --- |
| 97 | 91 |  |  | CC(=O)N[C@@H](CCCNC(=N)N)C(=O)N[C@H]1CCCCNC(=O)C[C@@H](C(N)=O)NC(=O)[C@H](Cc2c[nH]c3ccccc23)NC(=O)[C@H](CCCNC(=N)N)NC(=O)[C@@H](Cc2ccccc2)NC(=O)[C@H](CC(N)=O)NC1=O [compound 155, Ac-Arg-cyclo(Lys-Asn- D-Phe-Arg-Trp-Asp)- NH2] (HELM PEPTIDE1{[ac].R.K.N.[dF].R.W.D.[am]}$PEPTIDE1,PEPTIDE1,3:R3-8:R3$$$V2.0) |  |
|  |  | 98 | agonist | CC(=O)N[C@@H](CCCNC(=N)N)C(=O)N[C@H]1CCCC(=O)NCC[C@@H](C(N)=O)NC(=O)[C@H](Cc2c[nH]c3ccccc23)NC(=O)[C@H](CCCNC(=N)N)NC(=O)[C@@H](Cc2ccccc2)NC(=O)[C@H](CCN)NC1=O [compound 127, Ac-Arg-cyclo(hGlu-Dab- D-Phe-Arg-Trp-Dab)- NH2] |  |
|  |  | 96 | agonist | CC(=O)N[C@@H](CCCNC(=N)N)C(=O)N[C@H]1CCNC(=O)CCC[C@@H](C(N)=O)NC(=O)[C@H](Cc2c[nH]c3ccccc23)NC(=O)[C@H](CCCNC(=N)N)NC(=O)[C@@H](Cc2ccccc2)NC(=O)[C@H](CCN)NC1=O [compound 129, Ac-Arg-cyclo(Dab-Dab- D-Phe-Arg-Trp-hGlu)- NH2] |  |
|  |  | 95 | agonist | CC(=O)N[C@@H](CCCNC(=N)N)C(=O)N[C@H]1CCNC(=O)CCC[C@@H](C(N)=O)NC(=O)[C@H](Cc2c[nH]c3ccccc23)NC(=O)[C@H](CCCNC(=N)N)NC(=O)[C@@H](Cc2ccccc2)NC(=O)[C@H](Cc2c[nH]cn2)NC1=O [compound 128, Ac-Arg-cyclo(Dab-His- D-Phe-Arg-Trp-hGlu)- NH2] |  |
|  |  | 42 | partial agonist | CC(=O)N[C@@H](CCCNC(=N)N)C(=O)N[C@H]1CC(=O)NCCCC[C@@H](C(N)=O)NC(=O)[C@H](Cc2c[nH]c3ccccc23)NC(=O)[C@H](CCCNC(=N)N)NC(=O)[C@@H](Cc2ccccc2)NC(=O)[C@H](C(C)C)NC1=O [Peptide No. 16, Ac-Arg-cyclo(Asp-Val- D-Phe-Arg-Trp-Lys)- NH2] | food intake [1]: reduce food intake; rate of change in body weight [1]: decrease the rate of change in body weight; decrease in food consumption compared to control ([1]; 0.3 mg/kg, 0-2 and 0-4 hour periods): statistically significant; decrease in food consumption compared to control [1, 5]: statistically significant |
| 82 | 89 |  |  | CC(=O)N[C@@H](CCCNC(=N)N)C(=O)N[C@H]1CCCCNC(=O)C[C@@H](C(N)=O)NC(=O)[C@H](Cc2ccc3ccccc3c2)NC(=O)[C@H](CCCNC(=N)N)NC(=O)[C@@H](Cc2ccccc2)NC(=O)[C@H](CC(N)=O)NC1=O [compound 162, Ac-Arg-cyclo(Lys-Asn- D-Phe-Arg-Nal 2-Asp)- NH2] (HELM PEPTIDE1{[ac].R.K.N.[dF].R.[O=C([C@H](Cc1ccc2ccccc2c1)N[*:1])[*:2]].D.[am]}$PEPTIDE1,PEPTIDE1,3:R3-8:R3$$$V2.0) |  |
|  | 87 |  |  | CC(=O)N[C@@H](CCCNC(=N)N)C(=O)N[C@H]1CCCNC(=O)CC[C@@H](C(N)=O)NC(=O)[C@H](Cc2c[nH]c3ccccc23)NC(=O)[C@H](CCCNC(=N)N)NC(=O)[C@@H](Cc2ccccc2)NC(=O)[C@H](CC(N)=O)NC1=O [compound 154, Ac-Arg-cyclo(Orn-Asn- D-Phe-Arg-Trp-Glu)- NH2] |  |
